Some test systems named below: Candida albicans; Klebsiella pneumoniae; Staphylococcus aureus; Bacillus cereus; Escherichia coli; Bacillus subtilis.
Common to all, as to test: ≥ marks a high value that may be exact or a test limit, other limits are often not marked, values filed in µg/mL are converted to µM
Assay [1] has as its system Escherichia coli ATCC 25922.
The test system of assay [2] is Staphylococcus aureus ATCC 25923.
The test system of assay [3] is Acinetobacter baumannii ATCC 19606.
The test system of assay [4] is Enterococcus faecalis ATCC 29212.
In assay [5] the test system is Staphylococcus aureus ATCC 29213.

Each structure is given as a SMILES string. ≈ marks a conversion by molar mass, not a printed value.

As usually defined, the MIC is the least concentration at which growth counts as inhibited. As to `CC[C@H](C)[C@H](NC(=O)[C@H](CC(N)=O)NC(=O)[C@H](CCCCN)NC(=O)[C@H](CC(C)C)NC(=O)[C@H](Cc1ccccc1)NC(=O)[C@@H](NC(=O)[C@H](CCCCN)NC(=O)[C@H](Cc1c[nH]c2ccccc12)NC(=O)[C@H](CO)NC(=O)[C@H](C)N)C(C)C)C(=O)NCC(=O)N[C@@H](CCCCN)C(=O)N[C@@H](C)C(=O)N[C@@H](C)C(=O)NCC(=O)N[C@@H](CCCCN)C(=O)N[C@@H](C)C(=O)N[C@H](C(=O)N[C@@H](CC(C)C)C(=O)N[C@@H](CC(N)=O)C(=O)N[C@@H](CO)C(=O)N[C@H](C(=O)N[C@H](C(=O)N[C@@H](CC(=O)O)C(=O)N[C@@H](CCSC)C(=O)N[C@H](C(=O)N[C@@H](CC(N)=O)C(=O)N[C@@H](CCC(N)=O)C(N)=O)C(C)C)[C@@H](C)O)C(C)C)C(C)C` [ASWKVFLKNIGKAAGKAVLNSVTDMVNQ], the MIC in the assay on Candida albicans is 10.7 µM (≈ 32 µg/mL); in assay [1] it was 2.68 µM (≈ 8.01 µg/mL); in the assay on Klebsiella pneumoniae, 10.7 µM (≈ 32 µg/mL); in [2] it was 2.68 µM (≈ 8.01 µg/mL); against Staphylococcus aureus it was 2.68 µM (≈ 8.01 µg/mL).
As for `CC(C)C[C@H](NC(=O)[C@@H](NC(=O)[C@H](CCCN=C(N)N)NC(=O)[C@H](CO)NC(=O)[C@H](CC(C)C)NC(=O)[C@H](C)NC(=O)[C@H](CC(N)=O)NC(=O)CNC(=O)[C@H](CC(C)C)NC(=O)[C@H](C)NC(=O)CNC(=O)[C@H](CC(C)C)NC(=O)[C@@H](N)Cc1ccccc1)C(C)C)C(N)=O` [FLGALGNALSRVL], the minimum inhibitory concentration (MIC) in assay [3] is over 64 µM; in assay [4], over 64 µM; in assay [1], over 64 µM; in assay [5], 32 µM (≈ 42.5 µg/mL).
As for `CC(C)C[C@H](NC(=O)[C@@H](N)Cc1ccccc1)C(=O)N[C@@H](CCCCN)C(=O)N[C@H](C(=O)N[C@H](C(=O)N[C@@H](Cc1ccccc1)C(=O)N[C@@H](CCCCN)C(=O)N[C@@H](CCCCN)C(=O)N[C@@H](C)C(=O)N[C@@H](CO)C(=O)N[C@@H](CCCCN)C(=O)N[C@H](C(=O)N[C@@H](Cc1ccccc1)C(=O)N1CCC[C@H]1C(=O)N[C@@H](C)C(=O)N[C@H](C(=O)N[C@@H](Cc1ccccc1)C(=O)NCC(=O)N[C@@H](CCCCN)C(=O)N[C@H](C(=O)O)C(C)C)C(C)C)C(C)C)C(C)C)C(C)C` [FLKVVFKKASKVFPAVFGKV], the MIC was at least 57.1 µM in the assay with Bacillus cereus, 57.1 µM (≈ 128 µg/mL) against Escherichia coli and over 57.1 µM in the assay on Staphylococcus aureus.
For `CC(C)C[C@H](NC(=O)[C@H](CCCCN)NC(=O)[C@H](Cc1ccccc1)NC(=O)[C@@H](NC(=O)[C@@H](NC(=O)[C@H](CCCCN)NC(=O)[C@H](CC(C)C)NC(=O)[C@@H](N)Cc1ccccc1)C(C)C)C(C)C)C(=O)N[C@@H](C)C(=O)N[C@@H](CO)C(=O)N[C@@H](CCCCN)C(=O)N[C@H](C(=O)N[C@@H](Cc1ccccc1)C(=O)NCC(=O)N[C@@H](C)C(=O)N[C@H](C(=O)N[C@@H](Cc1ccccc1)C(=O)NCC(=O)N[C@@H](CCCCN)C(=O)N[C@H](C(=O)O)C(C)C)C(C)C)C(C)C` [FLKVVFKLASKVFGAVFGKV], the MIC turned out to be 7.32 µM (≈ 16 µg/mL) against Bacillus cereus, 58.6 µM (≈ 128 µg/mL) in the assay with Escherichia coli and 7.32 µM (≈ 16 µg/mL) in the assay with Staphylococcus aureus.
For the molecule `CC(C)C[C@H](NC(=O)[C@H](CCCCN)NC(=O)[C@H](Cc1ccccc1)NC(=O)[C@@H](NC(=O)[C@@H](NC(=O)[C@H](CCCCN)NC(=O)[C@H](CC(C)C)NC(=O)[C@@H](N)Cc1ccccc1)C(C)C)C(C)C)C(=O)N[C@@H](C)C(=O)N[C@@H](CO)C(=O)N[C@@H](CCCCN)C(=O)N[C@H](C(=O)N[C@@H](Cc1ccccc1)C(=O)N1CCC[C@H]1C(=O)N[C@@H](C)C(=O)N[C@H](C(=O)N[C@@H](Cc1ccccc1)C(=O)NCC(=O)N[C@@H](CCCCN)C(=O)N[C@H](C(=O)O)C(C)C)C(C)C)C(C)C` [FLKVVFKLASKVFPAVFGKV], the results for the MIC with Bacillus cereus, against Escherichia coli and against Staphylococcus aureus were 7.19 µM (≈ 16 µg/mL), 14.4 µM (≈ 32 µg/mL) and 1.8 µM (≈ 4 µg/mL), respectively.
For `CC[C@H](C)[C@H](NC(=O)[C@@H](NC(=O)[C@H](Cc1cnc[nH]1)NC(=O)[C@@H]1CCCN1C(=O)[C@@H](NC(=O)[C@H](CC(C)C)NC(=O)[C@H](CO)NC(=O)[C@H](CC(C)C)NC(=O)[C@@H](N)Cc1ccccc1)[C@@H](C)CC)C(C)C)C(=O)N[C@@H](CO)C(=O)N[C@@H](C)C(=O)N[C@H](C(=O)N1CCC[C@H]1C(=O)N[C@@H](Cc1cnc[nH]1)C(=O)N[C@H](C(=O)N[C@H](C(=O)N[C@@H](CC(N)=O)C(=O)N[C@@H](C)C(=O)N[C@@H](CC(C)C)C(=O)N[C@@H](CO)C(=O)N[C@@H](CC(N)=O)C(=O)N[C@@H](CC(C)C)C(N)=O)C(C)C)C(C)C)[C@@H](C)CC` [FLSLIPHVISAIPHVVNALSNL], the MIC is over 218 µM in the assay on Candida albicans, over 218 µM in assay [1], over 189 µM in the assay with Klebsiella pneumoniae and over 218 µM in [2].
With `CC[C@H](C)[C@H](NC(=O)[C@H](CC(C)C)NC(=O)[C@H](C)NC(=O)[C@@H]1CCCN1C(=O)[C@H](CC(C)C)NC(=O)CN)C(=O)N[C@@H](CO)C(=O)N[C@@H](Cc1c[nH]c2ccccc12)C(=O)N[C@@H](CO)C(=O)N[C@@H](CCCCN)C(=O)N[C@@H](CCCN=C(N)N)C(=O)N[C@@H](CCCCN)C(=O)N[C@@H](CCCN=C(N)N)C(=O)N[C@@H](CCC(N)=O)C(=O)N[C@@H](CCC(N)=O)C(N)=O` [GLPALISWSKRKRQQ], the minimal inhibitory concentration (MIC) in the assay on Bacillus subtilis is at least 40 µM; in the assay on Escherichia coli it was over 53.4 µM; in the assay with Staphylococcus aureus, 53.3 µM (≈ 94.1 µg/mL).
On to `CC[C@H](C)[C@H](N)C(=O)N[C@@H](CC(N)=O)C(=O)N[C@@H](Cc1ccccc1)C(=O)N[C@@H](CC(C)C)C(=O)N[C@@H](CCCCN)C(=O)N[C@@H](CC(C)C)C(=O)NCC(=O)N[C@@H](CCCCN)C(=O)N[C@@H](CCCCN)C(=O)N[C@H](C(=O)N[C@@H](CC(C)C)C(=O)NCC(=O)N[C@@H](C)C(=O)N[C@@H](CC(C)C)C(N)=O)[C@@H](C)CC` [INFLKLGKKILGAL], for which the MIC with Bacillus subtilis is 22.5 µM (≈ 34.4 µg/mL); in the assay on Escherichia coli, over 100 µM.
As to `CC[C@H](C)[C@H](N)C(=O)N[C@@H](CC(N)=O)C(=O)N[C@@H](Cc1c[nH]c2ccccc12)C(=O)N[C@@H](CCCCN)C(=O)N[C@@H](CCCCN)C(=O)N[C@H](C(=O)N[C@@H](C)C(=O)N[C@@H](CO)C(=O)N[C@H](C(=O)NCC(=O)N[C@@H](CCCCN)C(=O)N[C@@H](CCC(=O)O)C(=O)N[C@H](C(=O)N[C@@H](CC(C)C)C(=O)N[C@@H](CCCCN)C(=O)N[C@@H](C)C(N)=O)C(C)C)[C@@H](C)CC)[C@@H](C)CC` [INWKKIASIGKEVLKA], the values for the minimum inhibitory concentration (MIC) with Bacillus subtilis and against Escherichia coli were at least 70 µM and 75 µM (≈ 135 µg/mL), respectively.
The corresponding values for `CC[C@H](C)[C@H](N)C(=O)N[C@@H](CC(N)=O)C(=O)N[C@@H](Cc1c[nH]c2ccccc12)C(=O)N[C@@H](CC(C)C)C(=O)N[C@@H](CCCCN)C(=O)N[C@@H](CC(C)C)C(=O)NCC(=O)N[C@@H](CCCCN)C(=O)N[C@@H](CCCCN)C(=O)N[C@H](C(=O)N[C@@H](CC(C)C)C(=O)NCC(=O)N[C@@H](C)C(=O)N[C@H](C(N)=O)[C@@H](C)CC)[C@@H](C)CC` [INWLKLGKKILGAI] are 25 µM (≈ 39.2 µg/mL) and 67.5 µM (≈ 106 µg/mL).
The like results for `CC[C@H](C)[C@H](N)C(=O)N[C@@H](CC(N)=O)C(=O)N[C@@H](Cc1c[nH]c2ccccc12)C(=O)N[C@@H](CO)C(=O)N[C@@H](CO)C(=O)N[C@H](C(=O)N[C@@H](Cc1ccccc1)C(=O)N[C@@H](CCC(=O)O)C(=O)N[C@@H](CO)C(=O)N[C@H](C(=O)N[C@@H](CO)C(=O)N[C@@H](CC(N)=O)C(=O)N[C@@H](CC(C)C)C(=O)N[C@H](C(N)=O)C(C)C)C(C)C)[C@@H](C)CC` [INWSSIFESVSNLV] were, in that order, at least 100 µM and over 100 µM.
On to `CC[C@H](C)[C@H](NC(=O)[C@H](CCCCN)NC(=O)[C@H](CCCCN)NC(=O)[C@H](Cc1c[nH]c2ccccc12)NC(=O)[C@@H](NC(=O)[C@@H](N)CC(N)=O)[C@@H](C)CC)C(=O)N[C@@H](Cc1ccccc1)C(=O)N[C@@H](CCC(=O)O)C(=O)N[C@@H](CCCCN)C(=O)N[C@H](C(=O)N[C@@H](CCCCN)C(=O)N[C@@H](CC(N)=O)C(=O)N[C@@H](CC(C)C)C(=O)N[C@H](C(N)=O)C(C)C)C(C)C` [NIWKKIFEKVKNLV], for which the minimal inhibitory concentration (MIC) came to 20 µM (≈ 35.2 µg/mL) in the assay on Bacillus subtilis and 25 µM (≈ 44 µg/mL) against Escherichia coli.
Take `CC[C@H](C)[C@H](NC(=O)[C@H](CCCCN)NC(=O)[C@H](CS)NC(=O)[C@H](C)NC(=O)[C@@H](NC(=O)[C@H](Cc1ccccc1)NC(=O)CNC(=O)[C@H](CC(C)C)NC(=O)CNC(=O)[C@@H](NC(=O)[C@H](CCCN=C(N)N)NC(=O)CNC(=O)[C@H](CC(C)C)NC(=O)[C@H](CC(N)=O)NC(=O)[C@H](CCCCN)NC(=O)[C@H](CC(C)C)NC(=O)[C@@H](NC(=O)[C@H](CO)NC(=O)[C@H](CC(C)C)NC(=O)[C@H](CCSC)NC(=O)[C@@H](N)CO)C(C)C)C(C)C)C(C)C)C(=O)N[C@@H](CC(N)=O)C(=O)N[C@@H](CCCCN)C(=O)N[C@@H](CCC(N)=O)C(=O)N[C@@H](CS)C(=O)O` [SMLSVLKNLGRVGLGFVACKINKQC]: the minimal inhibitory concentration (MIC) turned out to be 100 µM (≈ 268 µg/mL) in the assay with Candida albicans, 20 µM (≈ 53.6 µg/mL) against Escherichia coli and 100 µM (≈ 268 µg/mL) against Staphylococcus aureus.

Values taken from DBAASP.
